The structures appear in SMILES notation.

Results on 3 compounds are retold here after patent US20140037574A1, “PHARMACEUTICAL COMPOSITION” (priority 2010, published 2014).

The data set has as its target CYP3A4 (Homo sapiens, UniProt P08684). In words: in vitro. Particulars: for inhibition at 10 min: human, microsomes, pH 7.4; for IC50: HLM, felodipine at its Km as substrate. The procedure:
G6PDH (40 U/mL) was prepared in 5 mM sodium citrate solution and stored at −20° C. until use. […] The preparation of NRS was completed right before use. It was made such that on addition to the HLM incubation mixture, it contained 2.6 mM NADP', 6.7 mM G6P, […] and 0.8 U/ml G6PDH.
Substrate (felodipine) solutions were prepared over a range of 0.01-100.0 mM in acetonitrile. […] This was kept on ice until use.
The reaction was halted by a stop solution made of cooled acetonitrile (−20° C.).
Supernatants were filtered through […] and analysed by the UPLC method developed in order to quantify the extent of felodipine metabolism. The rate of metabolism, determined as the rate of disappearance of substrate, was profiled against the substrate concentration to determine the enzyme kinetic parameters.
Felodipine at its determined Km was incubated in HLM as described above except for the addition of inhibitors. […] Supernatants were analysed using the developed UPLC method. […] Another control was incubated without inhibitors to allow for maximum metabolism. […] At higher concentrations, the effect of acetonitrile on enzymatic activity could be significant. It is therefore recommended that not >1% acetonitrile should be included in the incubation mixture. […] The final concentration of acetonitrile in the incubation mixture was 1%.
Their inhibitory effects were investigated on microsomal metabolism of felodipine. The potencies of the inhibitors were measured as their IC50 values determined through non-linear regression of the percentage inhibition of felodipine metabolism against inhibitor concentration. […] The concentration of felodipine in incubation mixtures containing the various inhibitors and the modelled pre-systemic enzymatic modulators was determined and the extent of metabolism was measured as percentage of control.

Sequence of CYP3A4 (P08684 whole entry): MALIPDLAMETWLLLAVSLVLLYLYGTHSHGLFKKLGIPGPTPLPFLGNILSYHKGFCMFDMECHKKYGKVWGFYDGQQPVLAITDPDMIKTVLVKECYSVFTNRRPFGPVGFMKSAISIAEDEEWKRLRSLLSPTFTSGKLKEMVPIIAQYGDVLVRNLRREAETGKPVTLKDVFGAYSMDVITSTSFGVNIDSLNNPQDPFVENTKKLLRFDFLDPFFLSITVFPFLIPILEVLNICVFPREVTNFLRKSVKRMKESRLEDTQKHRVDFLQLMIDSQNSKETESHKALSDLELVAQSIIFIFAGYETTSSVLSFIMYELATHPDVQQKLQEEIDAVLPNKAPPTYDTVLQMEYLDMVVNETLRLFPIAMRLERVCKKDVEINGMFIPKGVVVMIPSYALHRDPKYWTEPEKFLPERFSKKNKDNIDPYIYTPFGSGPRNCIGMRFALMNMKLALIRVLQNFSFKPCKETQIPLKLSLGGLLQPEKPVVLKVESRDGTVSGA

Broadly, the inhibition is how much of the control response was suppressed. A lower inhibition goes with a response near the control. Consider `O=C1C[C@@H](c2ccc(O)cc2)Oc2cc(O)cc(O)c21` [Naringenin, naringenin], for which the inhibition at 10 min worked out at 95%.
As usually defined, the IC50 is the midpoint of a concentration-inhibition curve. Low values mean greater potency, high ones weaker potency. The compound `C[C@@H]1O[C@@H](O[C@H]2[C@H](Oc3cc(O)c4c(c3)O[C@H](c3ccc(O)cc3)CC4=O)O[C@H](CO)[C@@H](O)[C@@H]2O)[C@H](O)[C@H](O)[C@H]1O` [Naringin, naringin] had an inhibition at 10 min of 98%. The same compound had a half-inhibitory concentration (IC50) (IC50 (mg/mL)) of 178 µM. For the setting “IC50 (μM), Table 1”, this compound came in with an IC50 of 178 µM.
On to `O=c1c(O)c(-c2ccc(O)c(O)c2)oc2cc(O)cc(O)c12` [Quercetin, quercetin], for which the inhibition at 10 min came to 98%.
